Results taken from the supplement of paper PMC10307832.

Legend:
Experiment in all cases: relative viability (nuclei count vs DMSO), 5 days (fraction); higher = more cells survive
ChaGo-K-1 = tested on: ChaGo-K-1
Outline: (§1)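 After 5 days of treatment, lung cancer cells in 1536-well plates were fixed and stained in a single step (final 0.05% Triton X-100, 1% formaldehyde, 1 ug/ml Hoechst) and their nuclei counted on 4× images. Treatment had been applied by pin tool the day after seeding as one drug alone or as a fixed anchor-drug dose with five library-drug doses (not always all listed) in √10 steps. Relative viability is the nuclei count of treated wells divided by that of vehicle wells, and values are medians of duplicate plates.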

EKVX = tested on: EKVX
Outline: as §1

EMC-BAC-2 = tested on: EMC-BAC-2
Outline: as §1

EPLC-272H = tested on: EPLC-272H
Outline: as §1

HCC-78 = tested on: HCC-78
Outline: as §1

HCC-827 = tested on: HCC-827
Outline: as §1

LCLC-103H = tested on: LCLC-103H
Outline: as §1

LK-2 = tested on: LK-2
Outline: as §1

LU99A = tested on: LU99A
Outline: as §1

NCI-H1563 = tested on: NCI-H1563
Outline: as §1

NCI-H1666 = tested on: NCI-H1666
Outline: as §1

NCI-H1975 = tested on: NCI-H1975
Outline: as §1

NCI-H2126 = tested on: NCI-H2126
Outline: as §1

NCI-H2342 = tested on: NCI-H2342
Outline: as §1

NCI-H23 = tested on: NCI-H23
Outline: as §1

NCI-H2405 = tested on: NCI-H2405
Outline: as §1

NCI-H322M = tested on: NCI-H322M
Outline: as §1

PC-14 = tested on: PC-14
Outline: as §1

RERF-LC-KJ = tested on: RERF-LC-KJ
Outline: as §1

SK-LU-1 = tested on: SK-LU-1
Outline: as §1

SW 1573 = tested on: SW 1573
Outline: as §1

SW 900 = tested on: SW 900
Outline: as §1

Compound: COc1cc2nccc(Oc3ccc(NC(=O)Nc4cc(C)on4)c(Cl)c3)c2cc1OC [Tivozanib] + COc1cccc2cc(-c3nc([C@H]4CC[C@H](C(=O)O)CC4)n4ncnc(N)c34)[nH]c12 [OSI-027] (partner 0.5 µM)
- relative viability (ChaGo-K-1; first compound 0.005 µM): 0.601
- relative viability (ChaGo-K-1; first compound 0.01581 µM): 0.555
- relative viability (ChaGo-K-1; first compound 0.05 µM): 0.605
- relative viability (ChaGo-K-1; first compound 0.1581 µM): 0.552
- relative viability (ChaGo-K-1; first compound 0.5 µM): 0.432
- relative viability (EKVX; first compound 0.005 µM): 0.665
- relative viability (EKVX; first compound 0.01581 µM): 0.735
- relative viability (EKVX; first compound 0.05 µM): 0.67
- relative viability (EKVX; first compound 0.1581 µM): 0.585
- relative viability (EKVX; first compound 0.5 µM): 0.731
- relative viability (EMC-BAC-2; first compound 0.005 µM): 0.372
- relative viability (EMC-BAC-2; first compound 0.01581 µM): 0.385
- relative viability (EMC-BAC-2; first compound 0.05 µM): 0.38
- relative viability (EMC-BAC-2; first compound 0.1581 µM): 0.279
- relative viability (EMC-BAC-2; first compound 0.5 µM): 0.334
- relative viability (EPLC-272H; first compound 0.005 µM): 0.268
- relative viability (EPLC-272H; first compound 0.01581 µM): 0.318
- relative viability (EPLC-272H; first compound 0.05 µM): 0.299
- relative viability (EPLC-272H; first compound 0.1581 µM): 0.244
- relative viability (EPLC-272H; first compound 0.5 µM): 0.294
- relative viability (HCC-78; first compound 0.005 µM): 0.326
- relative viability (HCC-78; first compound 0.01581 µM): 0.369
- relative viability (HCC-78; first compound 0.05 µM): 0.386
- relative viability (HCC-78; first compound 0.1581 µM): 0.31
- relative viability (HCC-78; first compound 0.5 µM): 0.316
- relative viability (HCC-827; first compound 0.005 µM): 0.74
- relative viability (HCC-827; first compound 0.01581 µM): 0.693
- relative viability (HCC-827; first compound 0.05 µM): 0.766
- relative viability (HCC-827; first compound 0.1581 µM): 0.621
- relative viability (HCC-827; first compound 0.5 µM): 0.763
- relative viability (LCLC-103H; first compound 0.005 µM): 0.475
- relative viability (LCLC-103H; first compound 0.01581 µM): 0.481
- relative viability (LCLC-103H; first compound 0.05 µM): 0.423
- relative viability (LCLC-103H; first compound 0.1581 µM): 0.369
- relative viability (LCLC-103H; first compound 0.5 µM): 0.498
- relative viability (LK-2; first compound 0.005 µM): 0.223
- relative viability (LK-2; first compound 0.01581 µM): 0.196
- relative viability (LK-2; first compound 0.05 µM): 0.244
- relative viability (LK-2; first compound 0.1581 µM): 0.172
- relative viability (LK-2; first compound 0.5 µM): 0.194
- relative viability (LU99A; first compound 0.005 µM): 0.292
- relative viability (LU99A; first compound 0.01581 µM): 0.302
- relative viability (LU99A; first compound 0.05 µM): 0.301
- relative viability (LU99A; first compound 0.1581 µM): 0.268
- relative viability (LU99A; first compound 0.5 µM): 0.238
- relative viability (NCI-H1563; first compound 0.005 µM): 0.751
- relative viability (NCI-H1563; first compound 0.01581 µM): 0.773
- relative viability (NCI-H1563; first compound 0.05 µM): 0.784
- relative viability (NCI-H1563; first compound 0.1581 µM): 0.718
- relative viability (NCI-H1563; first compound 0.5 µM): 0.817
- relative viability (NCI-H1666; first compound 0.005 µM): 0.927
- relative viability (NCI-H1666; first compound 0.01581 µM): 0.856
- relative viability (NCI-H1666; first compound 0.05 µM): 0.843
- relative viability (NCI-H1666; first compound 0.1581 µM): 0.799
- relative viability (NCI-H1666; first compound 0.5 µM): 0.807
- relative viability (NCI-H1975; first compound 0.005 µM): 0.673
- relative viability (NCI-H1975; first compound 0.01581 µM): 0.634
- relative viability (NCI-H1975; first compound 0.05 µM): 0.709
- relative viability (NCI-H1975; first compound 0.1581 µM): 0.565
- relative viability (NCI-H1975; first compound 0.5 µM): 0.475
- relative viability (NCI-H2126; first compound 0.005 µM): 0.655
- relative viability (NCI-H2126; first compound 0.01581 µM): 0.701
- relative viability (NCI-H2126; first compound 0.05 µM): 0.776
- relative viability (NCI-H2126; first compound 0.5 µM): 0.691
- relative viability (NCI-H2342; first compound 0.005 µM): 0.67
- relative viability (NCI-H2342; first compound 0.01581 µM): 0.556
- relative viability (NCI-H2342; first compound 0.05 µM): 0.644
- relative viability (NCI-H2342; first compound 0.5 µM): 0.562
- relative viability (NCI-H23; first compound 0.005 µM): 0.578
- relative viability (NCI-H23; first compound 0.01581 µM): 0.595
- relative viability (NCI-H23; first compound 0.05 µM): 0.671
- relative viability (NCI-H23; first compound 0.1581 µM): 0.355
- relative viability (NCI-H23; first compound 0.5 µM): 0.367
- relative viability (NCI-H2405; first compound 0.005 µM): 0.631
- relative viability (NCI-H2405; first compound 0.01581 µM): 0.716
- relative viability (NCI-H2405; first compound 0.05 µM): 0.684
- relative viability (NCI-H2405; first compound 0.1581 µM): 0.526
- relative viability (NCI-H2405; first compound 0.5 µM): 0.577
- relative viability (NCI-H322M; first compound 0.005 µM): 0.513
- relative viability (NCI-H322M; first compound 0.01581 µM): 0.603
- relative viability (NCI-H322M; first compound 0.05 µM): 0.545
- relative viability (NCI-H322M; first compound 0.1581 µM): 0.455
- relative viability (NCI-H322M; first compound 0.5 µM): 0.461
- relative viability (PC-14; first compound 0.005 µM): 0.695
- relative viability (PC-14; first compound 0.01581 µM): 0.928
- relative viability (PC-14; first compound 0.05 µM): 0.83
- relative viability (PC-14; first compound 0.1581 µM): 0.664
- relative viability (PC-14; first compound 0.5 µM): 0.664
- relative viability (RERF-LC-KJ; first compound 0.005 µM): 0.458
- relative viability (RERF-LC-KJ; first compound 0.01581 µM): 0.62
- relative viability (RERF-LC-KJ; first compound 0.05 µM): 0.657
- relative viability (RERF-LC-KJ; first compound 0.1581 µM): 0.415
- relative viability (RERF-LC-KJ; first compound 0.5 µM): 0.59
- relative viability (SK-LU-1; first compound 0.005 µM): 0.343
- relative viability (SK-LU-1; first compound 0.01581 µM): 0.314
- relative viability (SK-LU-1; first compound 0.05 µM): 0.383
- relative viability (SK-LU-1; first compound 0.1581 µM): 0.24
- relative viability (SK-LU-1; first compound 0.5 µM): 0.338
- relative viability (SW 1573; first compound 0.005 µM): 0.575
- relative viability (SW 1573; first compound 0.01581 µM): 0.633
- relative viability (SW 1573; first compound 0.05 µM): 0.68
- relative viability (SW 1573; first compound 0.1581 µM): 0.366
- relative viability (SW 1573; first compound 0.5 µM): 0.447
- relative viability (SW 900; first compound 0.005 µM): 0.556
- relative viability (SW 900; first compound 0.01581 µM): 0.501
- relative viability (SW 900; first compound 0.05 µM): 0.641
- relative viability (SW 900; first compound 0.1581 µM): 0.301
- relative viability (SW 900; first compound 0.5 µM): 0.518
